What was measured:
HeLa cells = test: HeLa cell survival after diode laser (670 nm) irradiation, MTS-PMS reagent; type: cell-based; settings: Homo sapiens, HeLa, light or radiation study, sodium salt, 6 hrs, 670 nm, 25 J/cm^2, read-out: Cell Survival Rate
Procedure: HeLa cells were seeded in wells of a 96-well plate each containing 100 μl of a culture medium at 5×10^3 /well, and incubated at 37° C. overnight. In each well, the culture medium was removed, and 100 μl of a solution containing sodium salt of either of compound (I) or compound (II) in concentrations of 0, 6.25, 12.5, 25, 50 and 100 μM/ml was added (3 wells for each group of the concentrations) and incubated at 37° C. at for 6 hrs. Each well was washed with PBS(-) once, and then 100 μl of a fresh medium was added. The wells were irradiated using a diode laser (670 nm) under the conditions of 0.44W of laser intensity, 0.785 cm^2 of irradiation area (diameter: 1 cm) and 25 J/cm^2 of laser energy. After the irradiation, each well was incubated at 37° C. overnight and washed with PBS(-) once, then 100 μl of a fresh medium was added. To each well was added 20 μl of MTS-PMS reagent, and the well was further incubated at 37° C. for 2-4 hrs. The absorbance of each well at 492 nm was measured using a microplate reader. The cell survival rate at each of the above mentioned concentrations of the test compound was calculated considering the value for the well of 0 μM/ml of the test compound as 100%.

colon cancer Colon 26 = test: Laser irradiation to extirpated organ: distribution (cancer/organ ratio) by surface fluorescence, N2-pulsed laser, mice bearing Colon 26; type: in vivo, CDF1 mice; settings: sodium salt, 10 mg/kg intravenous
Procedure: (§1) CDF1 mice (5 per group) were implanted with tumor tissues of colon cancer Colon 26. Two weeks after the implantation, the mice were given an intravenous injection of sodium salt of each of compounds (I) and (II) (10 mg/kg for each mouse) which had been diluted with a distilled water for injection. At 3 hrs, 6 hrs and 12 hrs after the injection, the blood samples were collected and the organs bearing the tumor tissue were extirpated, irradiated with N2 -pulsed laser (N2, wavelength: 337 nm, 2 ns), and the excited fluorescent spectrum was measured. The wavelengths in the range of 600 to 900 nm were examined based on the peak wavelength of NADH at 470 nm (determination of the distribution of the test compound in the organ by the surface fluorescence method using N2 -pulsed laser spectrophotometry). That is, cancer/organ (or plasma) ratio was determined by calculating the peak wavelength in the range of 600 to 900 nm when the peak wavelength at 470 nm was considered as the basic value, 1.

[1] = as above; type: in vivo, CDF1 mice; settings: mouse, tumor/plasma, sodium salt, 10 mg/kg intravenous
Procedure: as §1

Molecule `C=Cc1c(C)c2cc3nc(cc4[nH]c(cc5nc(cc1[nH]2)C(C)(O)C5=CC=NO)c(C)c4CCC(=O)NC(CC(=O)O)C(=O)O)C(CCC(=O)NC(CC(=O)O)C(=O)O)=C3C` (centres unmarked) [Compound (II), reference compound] has a viability at 6.25 µM (HeLa cells; 6.25 μM) of 81%, a viability at 12.5 µM (HeLa cells; 12.5 μM) of 54% and a viability at 25 µM (HeLa cells; 25 μM) of 48%. It also gave a viability at 50 µM (HeLa cells; 50 μM) of 35%, a viability at 100 µM (HeLa cells; 100 μM) of 19% and a Cancer/Brain ratio (colon cancer Colon 26; 3 hr) of 10.10. For the same molecule, the Cancer/Kidney ratio (colon cancer Colon 26; 3 hr) was 0.67, the Cancer/Liver ratio (colon cancer Colon 26; 3 hr) was 0.62 and the Cancer/Lung ratio (colon cancer Colon 26; 3 hr) was 2.35. The Cancer/Muscle ratio (colon cancer Colon 26; 3 hr) was 1.23, the Cancer/Brain ratio (colon cancer Colon 26; 6 hr) was 16.0 and the Cancer/Kidney ratio (colon cancer Colon 26; 6 hr) was 0.59. It also gave a Cancer/Liver ratio (colon cancer Colon 26; 6 hr) of 1.01, a Cancer/Lung ratio (colon cancer Colon 26; 6 hr) of 4.59 and a Cancer/Muscle ratio (colon cancer Colon 26; 6 hr) of 1.26. For the same molecule, the Cancer/Brain ratio (colon cancer Colon 26; 12 hr) was 15.0, the Cancer/Kidney ratio (colon cancer Colon 26; 12 hr) was 0.95 and the Cancer/Liver ratio (colon cancer Colon 26; 12 hr) was 1.11. For the same molecule, the Cancer/Lung ratio (colon cancer Colon 26; 12 hr) was 2.68, the Cancer/Muscle ratio (colon cancer Colon 26; 12 hr) was 2.95 and the Kp at 3 h ([1]; 3 hr) was 0.3. For the same molecule, the Kp at 6 h ([1]; 6 hr) was 1.12 and the Kp at 12 h ([1]; 12 hr) was 0.66.

— US6063777A, “Iminochlorinaspartic acid derivatives” (Wyeth Lederle Japan, Ltd., priority 1996, dated 2000)
